The values that follow come from patent publication US20250333701A1, “COMPOSITIONS AND METHODS FOR GENERATING HEMATOPOIETIC STEM CELLS (HSCS)” (Washington University, priority 2019, published 2025).

“Also recorded” adds a separate entry of the source.

Format in all cases: cell-based, human
One experiment has as its system KDR+ CXCR4+ mesoderm. Briefly: Specification of definitive hemogenic endothelium (HE) and hematopoietic potential from isolated day 3 WNTd KDR+ CXCR4+ mesoderm. The settings on record: for hematopoietic potential of the CD34+ HE specified: retinol (5 μM) added on day 3 to isolated KDR+ CXCR4+ mesoderm. How it is done: The hESC lines H1 and H9, and human iPSC1 were maintained on irradiated mouse embryonic fibroblasts in hESC media as described previously (Sturgeon, C. M., et al. Nat Biotechnol 32, 554-561, (2014); Thomson, J. A. et al. Science 282, 1145-1147 (1998); Dege, C. et al., J Vis Exp, (2017)). For differentiation, hPSC were cultured on Matrigel-coated plasticware (BD Biosciences, Bedford, MA) for 24 hours, followed by embryoid body (EB) generation, as described previously (Kennedy, M. et al. Cell Rep 2, 1722-1735, (2012); Dege, C. et al. J Vis Exp, (2017); Ditadi, A. et al. Methods 101, 65-72, (2016)). Briefly, hPSCs were dissociated with brief trypsin-EDTA (0.05%) treatment, followed by scraping. Embryoid body (EB) aggregates were resuspended in SFD media34 supplemented with L-glutamine (2 mM), ascorbic acid (1 mM), monothioglycerol (MTG, 4×10^−4 M; Sigma), transferrin (150 μg/mL), and BMP-4 (10 ng/mL). 24 hours later, bFGF (5 ng/mL) was added. On the second day of differentiation, ACTIVIN A, SB-431542 (6 μM), CHIR99021 (3 μM), and/or IWP2 (3 μM) were added. On the third day, EBs were changed to StemPro-34 media supplemented as above, with bFGF (5 ng/mL) and VEGF (15 ng/mL) and treated with either 10 μM of the pan-ALDH inhibitor DEAB (4-Diethylaminobenzaldehyde, Sigma #D86256; “RA-independent”) or 5 μM retinol (ROH, Sigma #R7632; “RA-dependent”). On day 6, IL-6 (10 ng/mL), IGF-1 (25 ng/mL), IL-11 (5 ng/mL), SCF (50 ng/mL), EPO (2 U/mL final) with DEAB or ROH were added. HE was FACS-isolated for terminal assays on day 8 (DEAB) or day 10 (ROH). All differentiation cultures were maintained at 37° C. All embryoid bodies and mesodermal aggregates were cultured in a 5% CO2/5% 02/90% N2 environment. All recombinant factors are human and were purchased from Biotechne. Analysis of hematopoietic colony potential via Methocult (Stem Cell Technologies) was performed as described previously (Ditadi, A. et al. Nat Cell Biol 17, 580-591, (2015); Kennedy, M. et al. Cell Rep 2, 1722-1735, (2012)).
For isolation of mesodermal populations, day 3 of differentiation WNTd KDR+ CD235a^negCXCR4+/neg and WNTi KDR+ CD235a+ cells were FACS-isolated and reaggregated at 250,000 cells/mL in day 3 media, as above. Cultures were plated in 250 μL volumes in a 24 well low-adherence culture plate, and grown overnight in a 37° C. incubator, with a 5% CO2/5% 02/90% N2 environment. As specified, RA was manipulated with either 5 μM ROH or ATRA (Sigma #R2625), or 10 μM DEAB. On day 4, an additional 1 mL of RA-supplemented day 3 media was added to reaggregates. On day 6 of differentiation, CD34+ and CD43+ cells from WNTi cultures were FACS-isolated for terminal assays. WNTd cultures were fed as normally, but without additional RA manipulation. CD34+ cells were sorted from all WNTd populations on day 8 of differentiation.
CD34+CD43^neg hemogenic endothelium was isolated by FACS and allowed to undergo the endothelial-to-hematopoietic transition as described previously (Ditadi, A. et al., Nat Cell Biol 17, 580-591, (2015); Ditadi, A. et al., Methods 101, 65-72, (2016)). Briefly, cells (CD34+CD43^neg or CD34+CD43^negCD73^negCXCR4neg cells) were aggregated overnight at a density of 2×10^5 cells/mL in StemPro-34 media supplemented with L-glutamine (2 mM), ascorbic acid (1 mM), monothioglycerol (MTG, 4×10^−4 M; Sigma-Aldrich), holo-transferrin (150 μg/mL), TPO (30 ng/mL), IL-3 (30 ng/mL), SCF (100 ng/mL), IL-6 (10 ng/mL), IL-11 (5 ng/mL), IGF-1 (25 ng/mL), EPO (2 U/mL), VEGF (5 ng/mL), bFGF (5 ng/mL), BMP4 (10 ng/mL), FLT3L (10 ng/mL), and SHH (20 ng/mL). Aggregates were spotted onto Matrigel-coated plasticware and were cultured for additional 3 or 9 days for WNTi and WNTd cultures, respectively. Cultures were maintained in a 37° C. incubator, in a 5% CO2/5% 02/90% N2 environment. Hemato-endothelial cultures were subsequently harvested by trypsinization, and assessed for hematopoietic potential by Methocult in a 37° C. incubator, in a 5% CO2/air environment. […]

Experiment [1] relates to WNTd KDR+ CXCR4neg mesoderm. Briefly: Definitive hematopoietic development / HE specification from isolated day 3 WNTd KDR+ CXCR4neg mesoderm. As for the experimental part:
The hESC lines H1 and H9, and human iPSC1 were maintained on irradiated mouse embryonic fibroblasts in hESC media as described previously (Sturgeon, C. M., et al. Nat Biotechnol 32, 554-561, (2014); Thomson, J. A. et al. Science 282, 1145-1147 (1998); Dege, C. et al., J Vis Exp, (2017)). For differentiation, hPSC were cultured on Matrigel-coated plasticware (BD Biosciences, Bedford, MA) for 24 hours, followed by embryoid body (EB) generation, as described previously (Kennedy, M. et al. Cell Rep 2, 1722-1735, (2012); Dege, C. et al. J Vis Exp, (2017); Ditadi, A. et al. Methods 101, 65-72, (2016)). Briefly, hPSCs were dissociated with brief trypsin-EDTA (0.05%) treatment, followed by scraping. Embryoid body (EB) aggregates were resuspended in SFD media34 supplemented with L-glutamine (2 mM), ascorbic acid (1 mM), monothioglycerol (MTG, 4×10^−4 M; Sigma), transferrin (150 μg/mL), and BMP-4 (10 ng/mL). 24 hours later, bFGF (5 ng/mL) was added. On the second day of differentiation, ACTIVIN A, SB-431542 (6 μM), CHIR99021 (3 μM), and/or IWP2 (3 μM) were added. On the third day, EBs were changed to StemPro-34 media supplemented as above, with bFGF (5 ng/mL) and VEGF (15 ng/mL) and treated with either 10 μM of the pan-ALDH inhibitor DEAB (4-Diethylaminobenzaldehyde, Sigma #D86256; “RA-independent”) or 5 μM retinol (ROH, Sigma #R7632; “RA-dependent”). On day 6, IL-6 (10 ng/mL), IGF-1 (25 ng/mL), IL-11 (5 ng/mL), SCF (50 ng/mL), EPO (2 U/mL final) with DEAB or ROH were added. HE was FACS-isolated for terminal assays on day 8 (DEAB) or day 10 (ROH). All differentiation cultures were maintained at 37° C. […]
(§1) CD34+CD43^neg hemogenic endothelium was isolated by FACS and allowed to undergo the endothelial-to-hematopoietic transition as described previously (Ditadi, A. et al., Nat Cell Biol 17, 580-591, (2015); Ditadi, A. et al., Methods 101, 65-72, (2016)). […] Hemato-endothelial cultures were subsequently harvested by trypsinization, and assessed for hematopoietic potential by Methocult in a 37° C. incubator, in a 5% CO2/air environment. […]

The next experiment deals with WNTi CD235a+ mesoderm. Briefly: Extra-embryonic-like HE specification from isolated day 3 WNTi CD235a+ mesoderm. As for the experimental part: (§2) The hESC lines H1 and H9, and human iPSC1 were maintained on irradiated mouse embryonic fibroblasts in hESC media as described previously (Sturgeon, C. M., et al. Nat Biotechnol 32, 554-561, (2014); Thomson, J. A. et al. Science 282, 1145-1147 (1998); Dege, C. et al., J Vis Exp, (2017)). For differentiation, hPSC were cultured on Matrigel-coated plasticware (BD Biosciences, Bedford, MA) for 24 hours, followed by embryoid body (EB) generation, as described previously (Kennedy, M. et al. Cell Rep 2, 1722-1735, (2012); Dege, C. et al. J Vis Exp, (2017); Ditadi, A. et al. Methods 101, 65-72, (2016)). Briefly, hPSCs were dissociated with brief trypsin-EDTA (0.05%) treatment, followed by scraping. Embryoid body (EB) aggregates were resuspended in SFD media34 supplemented with L-glutamine (2 mM), ascorbic acid (1 mM), monothioglycerol (MTG, 4×10^−4 M; Sigma), transferrin (150 μg/mL), and BMP-4 (10 ng/mL). 24 hours later, bFGF (5 ng/mL) was added. […]
as §1

A further experiment concerns HOXA genes. Briefly: HOXA gene expression in CXCR4+ mesoderm-derived CD34+ cells. The settings on record: after ROH treatment of CXCR4+ mesoderm on day 3. How it is done: Total RNA was prepared for whole-transcriptome sequencing using the Clontech SMARTer kit and was sequenced using an Illumina HiSeq 2500 with 1×50 single reads. Reads were aligned to hg19 using STAR and gene counts were obtained using Subread. TMM normalization and RPKM counts were calculated using EdgeR. Gene Set Enrichment Analysis (GSEA, version 4.0.1) and the Database for Annotation, Visualization, and Integrated discovery (DAVID, version 6.8) were used for differential expression analysis. Morpheus (software.broadinstitute.org/morpheus) was used to create heatmaps and perform hierarchical clustering (one minus the Pearson correlation with average linkage). Bulk RNA-seq comparison to scRNA-seq was performed using the SingleR package (version 1.0.1)(Aran, D. et al., Nat Immunol 20, 163-172, (2019)) implemented in R (version 3.5.1). qRT-PCR was performed as previously described (Sturgeon, C. M., et al., Nat Biotechnol 32, 554-561, (2014)). Briefly, total RNA was isolated with the RNAqueous RNA Isolation Kit (Ambion), followed by reverse transcription using random hexamers and Oligo (dT) with Superscript III Reverse Transcriptase (Invitrogen). Real-time quantitative PCR was performed on a StepOnePlus thermocycle (Applied Biosystems), using Power Green SYBR mix (Invitrogen). […] Gene expression was evaluated as DeltaCt relative to control (ACTB). […]

Experiment [2] has as its system WNTd differentiation cultures. Briefly: Hematopoietic potential of HE from bulk WNTd differentiation cultures treated on day 3 (erythro-myeloid CFC, BFU-E globin). The settings on record: ROH on day 3 (RAd HE) compared with DEAB (RAi HE). As for the experimental part: as §2, with “scraping.” for “scraping. Embryoid body (EB) aggregates were resuspended in SFD media34 supplemented with L-glutamine (2 mM), ascorbic acid (1 mM), monothioglycerol (MTG, 4×10^−4 M; Sigma), transferrin (150 μg/mL), and BMP-4 (10 ng/mL). 24 hours later, bFGF (5 ng/mL) was added.”
CD34+CD43^neg hemogenic endothelium was isolated by FACS and allowed to undergo the endothelial-to-hematopoietic transition as described previously (Ditadi, A. et al., Nat Cell Biol 17, 580-591, (2015); Ditadi, A. et al., Methods 101, 65-72, (2016)). […] Hemato-endothelial cultures were subsequently harvested by trypsinization, and assessed for hematopoietic potential by Methocult in a 37° C. incubator, in a 5% CO2/air environment. The experiments were performed in triplicate and the mean (±standard deviation) of the […] calculated for each data set is reported. […]

Take `CCN(CC)c1ccc(C=O)cc1` [DEAB, 4-Diethylaminobenzaldehyde]: in the experiment with KDR+ CXCR4+ mesoderm (DEAB (ALDH inhibitor) added to KDR+ CXCR4+ mesoderm culture), the “hematopoietic potential of the CD34+ population obtained” value is “completely lacked any hematopoietic potential”. Moreover, in experiment [1] (DEAB added to KDR+ CXCR4neg mesoderm differentiation, any stage), the “impact on definitive hematopoietic specification” value was “gives rise to definitive hematopoietic progenitors; also recorded: no negative impact”.

Turning to `CC1=C(/C=C/C(C)=C/C=C/C(C)=C/C(=O)O)C(C)(C)CCC1` [ATRA, all-trans-retinoic acid], in the experiment with KDR+ CXCR4+ mesoderm (1 nM ATRA on isolated KDR+ CXCR4+ mesoderm, day 3 of differentiation), the “specification of definitive HE” value is recorded as “robust specification of definitive HE”. The “specification of HE” value with KDR+ CXCR4+ mesoderm (ATRA concentrations lower than 1 nM and higher than 10 nM, isolated KDR+ CXCR4+ mesoderm) is recorded as “failed to specify HE”. The “effect on definitive hematopoietic development” value in experiment [1] (1-10 nM ATRA, WNTd KDR+ CXCR4neg mesoderm) was “no significant effect”. Moreover, the “ATRA concentration repressive to HE specification” value in experiment [1] (WNTd KDR+ CXCR4neg mesoderm) was > 100 nM. Also, the “ATRA concentration repressive to extra-embryonic-like HE specification” value with WNTi CD235a+ mesoderm is on record as > 1 nM.

For the compound `CC1=C(/C=C/C(C)=C/C=C/C(C)=C/CO)C(C)(C)CCC1` [ROH, retinol], in the experiment on HOXA genes, the HOXA gene expression result is on record as “elevated HOXA gene expression”. In experiment [2], the “erythro-myeloid CFC potential of the resulting HE” value is “significantly more erythro-myeloid CFC potential than RAi HE” and the “fetal (HBG) globin expression of resultant BFU-E” value is listed as “higher expression of fetal (HBG) globin”. For the same compound, the “stage at which ROH treatment results in specification of HE” value in the experiment on KDR+ CXCR4+ mesoderm (ROH treatment on day 3, 4 or 5 of CXCR4+ mesoderm) is reported as “on day 3 of differentiation, but not thereafter, resulted in the specification of HE”. Moreover, in the experiment on KDR+ CXCR4+ mesoderm, the “hematopoietic potential of the CD34+ HE specified” value is “harbored definitive erythroid, myeloid, and lymphoid hematopoietic potential”. Further, the “hematopoietic potential of the CD34+ HE specified” value in the experiment with KDR+ CXCR4+ mesoderm (listed as retinol) was “capable of erythro-myeloid-lymphoid multilineage hematopoiesis”.
